From PubChem BioAssay (NCI) come the findings set out here.

Where “and” joins values, the source holds several entries; their conditions need not be identical. Equal entries are not always repeated.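 Compound exposure: 48 hours, 5 concentrations, 96-well plates. At the GI50, growth is halved. TGI marks complete inhibition of growth.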

Some test systems named below: DMS 273 small cell lung; HCT-15 colon; M19-MEL melanoma; XF 498 CNS; SNB-78 CNS; HOP-18 NSCLC; BT-549 breast; T-47D breast; MDA-MB-231 breast.
Assay in all cases: NCI anticancer screen, dose series, 48 h

For `COC(=O)C12C3C4C1C1C2C3C41C(=O)OC(C)(C)C` (stereo not drawn), the TGI with DMS 273 small cell lung was greater than 60.5 µM; in the assay with HCT-15 colon, greater than 100 µM; in the assay on M19-MEL melanoma it was greater than 100 µM; in the assay on XF 498 CNS, greater than 100 µM; with SNB-78 CNS it was greater than 100 µM; with HOP-18 NSCLC, greater than 100 µM.

Take `O=S(O)CCCCSSCC(O)C(O)CSSCCCCS(=O)O` (stereo not drawn): the TGI in the assay on DMS 273 small cell lung is greater than 100 µM; with HCT-15 colon, greater than 100 µM; in the assay on M19-MEL melanoma, 15.6 µM and 29.7 µM; in the assay with XF 498 CNS, 35.9 µM and 26 µM; in the assay on SNB-78 CNS, 97.7 µM and > 100 µM; in the assay with HOP-18 NSCLC it was greater than 100 µM.

Take `CC1OC(n2cc(F)c(=O)[nH]c2=O)C=CC1O` (stereo not drawn): the TGI with DMS 273 small cell lung, with HCT-15 colon, in the assay on M19-MEL melanoma, in the assay on XF 498 CNS, in the assay with SNB-78 CNS and in the assay with HOP-18 NSCLC was greater than 100 µM in each case.

Consider `COC(=O)C(C(=O)C(=O)Nc1cccc(OC)c1)c1cnc2ccccc2n1` (stereo not drawn), for which the TGI in the assay on DMS 273 small cell lung, with HCT-15 colon, with XF 498 CNS, in the assay with SNB-78 CNS and in the assay with HOP-18 NSCLC was greater than 100 µM throughout.

With `O=C1c2ccccc2C(=O)C1(Cl)C1(S(=O)(=O)O)c2ccccc2-c2ccccc21`, the TGI in the assay with DMS 273 small cell lung, with HCT-15 colon, in the assay on M19-MEL melanoma, in the assay with XF 498 CNS, in the assay with SNB-78 CNS and in the assay on HOP-18 NSCLC was greater than 100 µM in each case.

For the molecule `COC(=O)C1=C(c2ccc3c(c2)OCO3)O[C@H](c2cc(OC)c(OC)c(OC)c2)[C@H]1COC(C)=O`, the TGI was greater than 100 µM in the assay on DMS 273 small cell lung; greater than 100 µM with HCT-15 colon; 27.9 µM in the assay with M19-MEL melanoma; 36.8 µM in the assay on XF 498 CNS; greater than 100 µM in the assay with SNB-78 CNS; 60.9 µM in the assay with HOP-18 NSCLC.

Turning to `CNC(=S)NC1CCCCC1NC(=S)NC` (stereo not drawn), the TGI in the assay with DMS 273 small cell lung, with HCT-15 colon, in the assay with M19-MEL melanoma, with XF 498 CNS, in the assay on SNB-78 CNS and in the assay with HOP-18 NSCLC was greater than 100 µM in each case.

In the case of `CC(C)(C)[SiH]12(OC(C(F)(F)F)(C(F)(F)F)c3ccccc31)OC(C(F)(F)F)(C(F)(F)F)c1ccccc12`, the TGI in the assay on DMS 273 small cell lung came out at 24.3 µM; in the assay with HCT-15 colon, 4.77 µM; in the assay on M19-MEL melanoma, 26.4 µM; in the assay on XF 498 CNS, 24.3 µM; with SNB-78 CNS, 25.3 µM; with HOP-18 NSCLC it was 9.83 µM.

With `O=c1nc2occc2cn1C1CC(O)C(CO)O1` (stereo not drawn), the TGI in the assay on DMS 273 small cell lung, in the assay on HCT-15 colon, in the assay with M19-MEL melanoma, in the assay on XF 498 CNS, with SNB-78 CNS and with HOP-18 NSCLC was greater than 100 µM in each case.

In the case of `O=C1CCCC/C(=C/c2ccccc2)N1`, the TGI in the assay with DMS 273 small cell lung, in the assay with HCT-15 colon, with M19-MEL melanoma, in the assay on XF 498 CNS, in the assay on SNB-78 CNS and with HOP-18 NSCLC was greater than 100 µM each time.

For `O=C(Nc1nc2ncn(CCI)c2c(=O)[nH]1)c1ccccc1`, the TGI was greater than 100 µM in the assay with DMS 273 small cell lung; greater than 100 µM with HCT-15 colon; greater than 100 µM with M19-MEL melanoma; greater than 61.2 µM in the assay on XF 498 CNS; greater than 100 µM in the assay on SNB-78 CNS; greater than 100 µM with HOP-18 NSCLC.

On to `CC(O)C(N=Cc1ccccc1[O-])C(=O)[O-].CC(O)C(N=Cc1ccccc1[O-])C(=O)[O-].[Co+2]` (stereo not drawn), for which the GI50 in the assay with HCT-15 colon was greater than 100 µM; in the assay on M19-MEL melanoma, 78.8 µM; in the assay with XF 498 CNS it was greater than 100 µM; in the assay with SNB-78 CNS, greater than 100 µM; in the assay with HOP-18 NSCLC it was 70.8 µM. Moreover, the TGI in the assay on HCT-15 colon, in the assay on M19-MEL melanoma, in the assay on XF 498 CNS, in the assay on SNB-78 CNS and in the assay with HOP-18 NSCLC was greater than 100 µM in each case.

For the molecule `O=C(O)CNc1cc(-c2ccccc2)nc(NCC(=O)O)n1`, the TGI with DMS 273 small cell lung, in the assay on HCT-15 colon, with M19-MEL melanoma, in the assay on XF 498 CNS, with SNB-78 CNS and in the assay on HOP-18 NSCLC was greater than 100 µM each time.

Take `COC(=O)C1=C(C)N(NC(=O)c2ccccc2)C(C)(O)C12CCOC2=O` (stereo not drawn): the TGI in the assay with DMS 273 small cell lung, with HCT-15 colon, in the assay with XF 498 CNS, in the assay with SNB-78 CNS and in the assay on HOP-18 NSCLC was greater than 100 µM throughout.

For `CS(=O)(=O)N/N=C/CN1C(=O)c2ccccc2C1=O`, the TGI with DMS 273 small cell lung, with HCT-15 colon, in the assay on M19-MEL melanoma, in the assay with XF 498 CNS, with SNB-78 CNS and in the assay with HOP-18 NSCLC was greater than 100 µM throughout.

For the molecule `Cc1ccc(S(=O)(=O)NCC2CCCCC2=O)cc1` (stereo not drawn), the TGI with DMS 273 small cell lung, in the assay with HCT-15 colon, in the assay with M19-MEL melanoma, in the assay with XF 498 CNS, in the assay on SNB-78 CNS and in the assay with HOP-18 NSCLC was greater than 100 µM each time.

In the case of `COC(=O)c1cc2c3ccccc3n(C(C)=O)c2cn1`, the TGI with DMS 273 small cell lung was greater than 100 µM; in the assay on HCT-15 colon, greater than 100 µM; with M19-MEL melanoma, greater than 100 µM; with XF 498 CNS, 89.9 µM; with SNB-78 CNS, greater than 100 µM; in the assay on HOP-18 NSCLC, greater than 100 µM.

Consider `O=S(=O)([O-])c1ccc2c(c1)-c1nc-2nc2[n-]c(nc3nc(nc4[n-]c(n1)c1ccc(S(=O)(=O)[O-])cc41)-c1cc(S(=O)(=O)[O-])ccc1-3)c1ccc(S(=O)(=O)[O-])cc21.[Cu+2].[Na+]`, for which the GI50 was 47.4 µM in the assay with BT-549 breast; 75.6 µM in the assay with T-47D breast; 6.07 µM with DMS 273 small cell lung; 0.977 µM in the assay on HCT-15 colon; 6.21 µM with M19-MEL melanoma; 68.3 µM in the assay with XF 498 CNS. For the same molecule, the GI50 in the assay with SNB-78 CNS, in the assay on MDA-MB-231 breast and with HOP-18 NSCLC was greater than 100 µM throughout. The TGI is greater than 100 µM in the assay with BT-549 breast; greater than 100 µM with T-47D breast; greater than 100 µM with DMS 273 small cell lung; 36.4 µM with HCT-15 colon; greater than 100 µM in the assay on M19-MEL melanoma; greater than 100 µM with XF 498 CNS. Besides, the TGI with SNB-78 CNS, in the assay with MDA-MB-231 breast and with HOP-18 NSCLC was greater than 100 µM each time.

Take `S=C(N/N=C/c1ccco1)NC12CC3CC(CC(C3)C1)C2`: the TGI in the assay with DMS 273 small cell lung, with HCT-15 colon, in the assay with M19-MEL melanoma, with XF 498 CNS, in the assay on SNB-78 CNS and in the assay on HOP-18 NSCLC was greater than 100 µM in each case.
